Results from patent US8168806B2, “Boron chelate complexes” (Chemetall GmbH, priority 2001, dated 2012).
Like-named read-outs stand apart in the source and are kept apart here.

What was measured:
[1] = 5% solution in water, stirring for 2 hours, room temperature
[2] = room temperature
[3] = room temperature; for Cond. (conductivity): at the concentration (mmole/g) printed in the cell to the left
[4] = prior art statement; cited from earlier work
[5] = 0.5 molar solution in γ-butyrolactone, nickel electrodes, FIG. 1
[6] = thermogravimetry
[7] = in propylene carbonate; Xu and Angell 2001; cited from earlier work
[8] = Qualitative solubility of the product of Example 3 in organic solvents; assay type: physicochemical; settings: in propylene carbonate, γ-butyrolactone, 1,2-dimethyoxyethane, acetone and dimethylformamide
[9] = in 1,2-DME (1,2-dimethoxyethane)

SMILES | Degree of hydrolysis [1] [%] | Solubility [2, 9] [mol/kg] | Solubility ([2]; in PC (propylene carbonate)) [mol/kg] | Solubility ([2]; in THF (tetrahydrofuran)) [mol/kg] | Solubility ([2]; in acetone) [mol/kg] | Solubility ([2]; in γ-BL (γ-butyrolactone)) [mol/kg] | Cond. (conductivity) ([3]; in THF) [mS/cm] | Cond. (conductivity) ([3]; in γ-BL) [mS/cm] | Electrochemical stability / electrochemical window up to [4] | Electrochemical window (upper limit of stability, Li/Li+=0) [5] | Cond. (conductivity) ([3]; in 1,2-DME) [mS/cm] | TGA: decomposition starts at [6] | Solubility [7] [mM] | Concn. column: solubility in words ([3]; in 1,2-DME) | Concn. column: solubility in words ([3]; in THF) | Solubility in words [8]
O=C1CC(=O)O[B-]2(O1)OC(=O)C(=O)O2.[Li+] [LOMB, Lithium-(malonato,oxalato)borate] | 15 | 0.20 | 0.17 | 0.17 | 0.43 | 0.62 | 0.41 | 3.59 |  |  |  |  |  |  |  | 
O=C1O[B-]2(OC1=O)OC(=O)C(=O)O2.[Li+] [LOB, Lithium-bis(oxalato)borate] | >50 | 1.30 | 0.88 | 1.90 | 1.82 | 1.55 |  | 6.96 | about 4.5 V |  |  |  |  |  |  | 
CC1O[B-]2(OC(=O)C(=O)O2)OC1=O.[Li+] (stereo not shown) [LLOB, Lithium-(lactato,oxalato)borate] |  | 0.93 | 0.17 | 1.59 | 1.38 | 0.96 | 2.91 | 2.61 |  | ca. 5 V | 6.52 | ca. 270 °C |  |  |  | 
O=C1CC(=O)O[B-]2(O1)OC(=O)CC(=O)O2.[Li+] [LMB, Lithium-bis(malonato)borate] | 5 | 0.003 | 0.02 | 0.09 | 0.03 | 0.13 | 0.01 | 1.65 | up to 5 V |  |  |  | 80 |  |  | 
CC1O[B-]2(OC1=O)OC(=O)C(C)O2.[Li+] (stereo not shown) [LLB, Lithium-bis(lactato)borate] |  | <0.01 | <0.01 | <0.01 | <0.01 | 0.02 | 0 | 0.01 |  |  | 0 |  |  | insoluble | insoluble | 
O=C1O[B-]2(OC1=O)OC(=O)c1ccccc1O2.[H+] [HSOB, hydrogen-(salicylato, oxalato)borate] |  |  |  |  |  |  |  |  |  |  |  |  |  |  |  | extremely soluble
O=C1O[B-]2(OC1=O)OC(=O)c1ccccc1O2.[Li+] [LOSB, Lithium-(oxalato,salicylato)borate] |  | 0.43 | 1.50 | 1.21 | 0.51 | 0.98 | 3.17 |  |  |  | 4.17 | ca. 210 °C |  |  |  | 
